Among the data in US12091425B2 (AMGEN INC., priority 2016, dated 2024) are IC50 values, retold here.

Assay [1] relates to OPM-2 human multiple myeloma cell line. Kind of assay: Cell Viability Assay (OPM-2 10 FBS). Type of assay: cell-based. The conditions noted are these: OPM-2 cells, 16 h incubation, CellTiter-Glo. An outline of the steps:
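Plated at 3000 cells/well in 10% FBS complete medium, the cells received a serial compound dilution series and incubated 16 h at 37 °C with 5% CO2. CellTiter-Glo was then added; IC50 values were fitted with a logistic 4-parameter model.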
A general note: Cellular ATP, detected with luciferase, serves as a proxy for viable cell number.

The target of assay [2] is T1, Mcl-1/Bim interaction, recombinant human Mcl-1 (171-327) (Homo sapiens, UniProt Q07820).
T1 construct: made in house
T1 sequence (Q07820 171-327): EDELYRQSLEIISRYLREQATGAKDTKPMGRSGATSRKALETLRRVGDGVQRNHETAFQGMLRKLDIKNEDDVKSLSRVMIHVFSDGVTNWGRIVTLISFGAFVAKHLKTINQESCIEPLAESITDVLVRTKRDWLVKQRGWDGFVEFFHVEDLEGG
Kind of assay: Cell free Mcl-1: Bim Affinity Assay (Mcl-1 HTRF). Format: binding. The conditions noted are these: TR-FRET, 0.1 nM Mcl-1 (171-327), 0.05 nM biotin-Bim (51-76). An outline of the steps:
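Read-out is time-resolved FRET after overnight incubation, using a biotin-labelled peptide from human Bim (51-76) as the binding partner; IC50 was derived from competition curves.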
(TR-FRET usually uses a lanthanide donor and a delayed reading to cut background.)

Molecules are shown by their SMILES.

For the molecule `CC[C@@H]1CC/C=C/[C@H](OCC(=O)N2CCC2)[C@@H]2CC[C@H]2CN2C[C@@]3(CCCc4cc(Cl)ccc43)COc3ccc(cc32)C(=O)NS1(=O)=O` [Example 997, (1S,3′R,6′R,7′S,8′E,12′R)-7′-(2-(1-azetidinyl)-2-oxoethoxy)-6-chloro-12′-ethyl-3,4-dihydro-2H,15′H-spiro[naphthalene-1,22′-[20]oxa[13]thia[1,14]diazatetracyclo[14.7.2.0^3,6.0^19,24]pentacosa [8,16,18,24]tetraen]-15′-one 13′,13′-dioxide], the IC50 was determined as 962 nM in assay [1] (Homo sapiens, OPM-2, 16 h) and 0.336 nM in assay [2].

Turning to `CC[C@@H]1CC/C=C/[C@H](OCC(=O)NCCOC)[C@@H]2CC[C@H]2CN2C[C@@]3(CCCc4cc(Cl)ccc43)COc3ccc(cc32)C(=O)NS1(=O)=O` [Example 1001, 2-(((1S,3′R,6′R,7′S,8′E,12′R)-6-chloro-12′-ethyl-13′,13′-dioxido-15′-oxo-3,4-dihydro-2H-spiro[naphthalene-1,22′-[20]oxa[13]thia[1,14]diazatetracyclo[14.7.2.0^3,6.0^19,24]pentacosa [8,16,18,24]tetraen]-7′-yl)oxy)-N-(2-methoxyethyl)acetamide], the IC50 in assay [1] (Homo sapiens, OPM-2, 16 h) was determined as 861 nM; in assay [2] it was 0.573 nM.

Take `CC[C@@H]1CC/C=C/[C@H](OCC(=O)NCCN2CCOCC2)[C@@H]2CC[C@H]2CN2C[C@@]3(CCCc4cc(Cl)ccc43)COc3ccc(cc32)C(=O)NS1(=O)=O` [Example 1002, 2-(((1S,3′R,6′R,7′S,8′E,12′R)-6-chloro-12′-ethyl-13′,13′-dioxido-15′-oxo-3,4-dihydro-2H-spiro[naphthalene-1,22′-[20]oxa[13]thia[1,14]diazatetracyclo[14.7.2.0^3,6.0^19,24]pentacosa [8,16,18,24]tetraen]-7′-yl)oxy)-N-(2-(4-morpholinyl)ethyl)acetamide]: the IC50 in assay [1] (Homo sapiens, OPM-2, 16 h) turned out to be 1220 nM; in assay [2] it was 0.448 nM.

As to `CCOC(=O)CO[C@H]1/C=C/CC[C@@H](CC)S(=O)(=O)NC(=O)c2ccc3c(c2)N(C[C@@H]2CC[C@H]21)C[C@@]1(CCCc2cc(Cl)ccc21)CO3` [Example 1003, ethyl (((1S,3′R,6′R,7′S,8′E,12′R)-6-chloro-12′-ethyl-13′,13′-dioxido-15′-oxo-3,4-dihydro-2H-spiro[naphthalene-1,22′-[20]oxa[13]thia[1,14]diazatetracyclo[14.7.2.0^3,6.0^19,24]pentacosa [8,16,18,24]tetraen]-7′-yl)oxy)acetate], the concentration for half-maximal inhibition (IC50) in assay [1] (Homo sapiens, OPM-2, 16 h) was determined as 273 nM; in assay [2] it was 0.844 nM.

As for `CC[C@@H]1CC/C=C/[C@H](O[C@H](C)C(=O)O)[C@@H]2CC[C@H]2CN2C[C@@]3(CCCc4cc(Cl)ccc43)COc3ccc(cc32)C(=O)NS1(=O)=O` [Example 1005], the IC50 is 4110 nM in assay [1] and 0.157 nM in assay [2].

On to `CC[C@@H]1CC/C=C/[C@H](OCCC(=O)O)[C@@H]2CC[C@H]2CN2C[C@@]3(CCCc4cc(Cl)ccc43)COc3ccc(cc32)C(=O)NS1(=O)=O` [Example 1008, 3-(((1S,3′R,6′R,7′S,8′E,12′R)-6-chloro-12′-ethyl-13′,13′-dioxido-15′-oxo-3,4-dihydro-2H-spiro[naphthalene-1,22′-[20]oxa[13]thia[1,14]diazatetracyclo[14.7.2.0^3,6.0^19,24]pentacosa [8,16,18,24]tetraen]-7′-yl)oxy)propanoic Acid], for which the IC50 in assay [1] (Homo sapiens, OPM-2, 16 h) is 5590 nM; in assay [2] it was 0.232 nM.

Take `CCOC(=O)CCO[C@H]1/C=C/CC[C@@H](CC)S(=O)(=O)NC(=O)c2ccc3c(c2)N(C[C@@H]2CC[C@H]21)C[C@@]1(CCCc2cc(Cl)ccc21)CO3` [Example 1009, ethyl 3-(((1S,3′R,6′R,7′S,8′E,12′R)-6-chloro-12′-ethyl-13′,13′-dioxido-15′-oxo-3,4-dihydro-2H-spiro[naphthalene-1,22′-[20]oxa[13]thia[1,14]diazatetracyclo[14.7.2.0^3,6.0^19,24]pentacosa [8,16,18,24]tetraen]-7′-yl)oxy)propanoate]: the IC50 in assay [1] (Homo sapiens, OPM-2, 16 h) was found to be 702 nM; in assay [2], 1.23 nM.

Consider `CC[C@@H]1CC/C=C/[C@H](OCCC(=O)N(C)C)[C@@H]2CC[C@H]2CN2C[C@@]3(CCCc4cc(Cl)ccc43)COc3ccc(cc32)C(=O)NS1(=O)=O` [Example 1010, 3-(((1S,3′R,6′R,7′S,8′E,12′R)-6-chloro-12′-ethyl-13′,13′-dioxido-15′-oxo-3,4-dihydro-2H-spiro[naphthalene-1,22′-[20]oxa[13]thia[1,14]diazatetracyclo[14.7.2.0^3,6.0^19,24]pentacosa [8,16,18,24]tetraen]-7′-yl)oxy)-N,N-dimethylpropanamide], for which the half-maximal inhibitory concentration (IC50) in assay [1] (Homo sapiens, OPM-2, 16 h) is 298 nM; in assay [2], 0.377 nM.

As for `CC[C@@H]1CC/C=C/[C@H](OCCC(=O)N2CCOCC2)[C@@H]2CC[C@H]2CN2C[C@@]3(CCCc4cc(Cl)ccc43)COc3ccc(cc32)C(=O)NS1(=O)=O` [Example 1011, (1S,3′R,6′R,7′S,8′E,12′R)-6-chloro-12′-ethyl-7′-(3-(4-morpholinyl)-3-oxopropoxy)-3,4-dihydro-2H,15′H-spiro[naphthalene-1,22′-[20]oxa[13]thia[1,14]diazatetracyclo[14.7.2.0^3,6.0^19,24]pentacosa [8,16,18,24]tetraen]-15′-one 13′,13′-dioxide], the IC50 in assay [1] (Homo sapiens, OPM-2, 16 h) stood at 524 nM; in assay [2] it was 0.347 nM.

For the molecule `C[C@@H]1C[C@@H](C)/C=C/[C@H](O)[C@@H]2CC[C@H]2CN2C[C@@]3(CCCc4cc(Cl)ccc43)COc3ccc(cc32)C(=O)NS1(=O)=O` [Example 1014, (1S,3′R,6′R,7′S,8′E,10′R,12′R)-6-chloro-7′-hydroxy-10′,12′-dimethyl-3,4-dihydro-2H,15′H-spiro[naphthalene-1,22′-[20]oxa[13]thia[1,14]diazatetracyclo[14.7.2.0^3,6.0^19,24]pentacosa [8,16,18,24]tetraen]-15′-one 13′,13′-dioxide], the IC50 amounted to 329 nM in assay [1] (Homo sapiens, OPM-2, 16 h) and 0.267 nM in assay [2].

In the case of `C[C@@H]1/C=C/[C@H](O)[C@@H]2CC[C@H]2CN2C[C@@]3(CCCc4cc(Cl)ccc43)COc3ccc(cc32)C(=O)NS(=O)(=O)[C@H](C)C1` [Example 1015, (1S,3′R,6′R,7′S,8′E,10′S,12′R)-6-chloro-7′-hydroxy-10′,12′-dimethyl-3,4-dihydro-2H,15′H-spiro[naphthalene-1,22′-[20]oxa[13]thia[1,14]diazatetracyclo[14.7.2.0^3,6.0^19,24]pentacosa [8,16,18,24]tetraen]-15′-one 13′,13′-dioxide], the half-inhibitory concentration (IC50) in assay [1] (Homo sapiens, OPM-2, 16 h) worked out at 235 nM; in assay [2] it was 0.275 nM.

For `CO[C@H]1/C=C/[C@H](C)C[C@@H](C)S(=O)(=O)NC(=O)c2ccc3c(c2)N(C[C@@H]2CC[C@H]21)C[C@@]1(CCCc2cc(Cl)ccc21)CO3` [Example 1016, (1S,3′R,6′R,7′S,8′E,10′R,12′R)-6-chloro-7′-methoxy-10′,12′-dimethyl-3,4-dihydro-2H,15′H-spiro[naphthalene-1,22′-[20]oxa[13]thia[1,14]diazatetracyclo[14.7.2.0^3,6.0^19,24]pentacosa [8,16,18,24]tetraen]-15′-one 13′,13′-dioxide], the concentration for half-maximal inhibition (IC50) in assay [1] (Homo sapiens, OPM-2, 16 h) was 291 nM; in assay [2], 0.483 nM.

For `COCCO[C@H]1/C=C/[C@H](C)C[C@@H](C)S(=O)(=O)NC(=O)c2ccc3c(c2)N(C[C@@H]2CC[C@H]21)C[C@@]1(CCCc2cc(Cl)ccc21)CO3` [Example 1017, (1S,3′R,6′R,7′S,8′E,10′R,12′R)-6-chloro-7′-(2-methoxyethoxy)-10′,12′-dimethyl-3,4-dihydro-2H,15′H-spiro[naphthalene-1,22′-[20]oxa[13]thia[1,14]diazatetracyclo[14.7.2.0^3,6.0^19,24]pentacosa [8,16,18,24]tetraen]-15′-one 13′,13′-dioxide], the half-inhibitory concentration (IC50) in assay [1] (Homo sapiens, OPM-2, 16 h) turned out to be 310 nM; in assay [2], 0.339 nM.

Consider `C[C@@H]1C[C@@H](C)/C=C/[C@H](OCCN2CCOCC2)[C@@H]2CC[C@H]2CN2C[C@@]3(CCCc4cc(Cl)ccc43)COc3ccc(cc32)C(=O)NS1(=O)=O` [Example 1018, (1S,3′R,6′R,7′S,8′E,10′R,12′R)-6-chloro-10′,12′-dimethyl-7′-(2-(4-morpholinyl)ethoxy)-3,4-dihydro-2H,15′H-spiro[naphthalene-1,22′-[20]oxa[13]thia[1,14]diazatetracyclo[14.7.2.0^3,6.0^19,24]pentacosa [8,16,18,24]tetraen]-15′-one 13′,13′-dioxide], for which the half-maximal inhibitory concentration (IC50) amounted to 285 nM in assay [1] (Homo sapiens, OPM-2, 16 h) and 0.356 nM in assay [2].

With `CO[C@H]1/C=C/[C@@H](C)C[C@@H](C)S(=O)(=O)NC(=O)c2ccc3c(c2)N(C[C@@H]2CC[C@H]21)C[C@@]1(CCCc2cc(Cl)ccc21)CO3` [Example 1019, (1S,3′R,6′R,7′S,8′E,10′S,12′R)-6-chloro-7′-methoxy-10′,12′-dimethyl-3,4-dihydro-2H,15′H-spiro[naphthalene-1,22′-[20]oxa[13]thia[1,14]diazatetracyclo[14.7.2.0^3,6.0^19,24]pentacosa [8,16,18,24]tetraen]-15′-one 13′,13′-dioxide], the half-maximal inhibitory concentration (IC50) was found to be 475 nM in assay [1] (Homo sapiens, OPM-2, 16 h) and 0.497 nM in assay [2].

Turning to `COCCO[C@H]1/C=C/[C@@H](C)C[C@@H](C)S(=O)(=O)NC(=O)c2ccc3c(c2)N(C[C@@H]2CC[C@H]21)C[C@@]1(CCCc2cc(Cl)ccc21)CO3` [Example 1020, (1S,3′R,6′R,7′S,8′E,10′S,12′R)-6-chloro-7′-(2-methoxyethoxy)-10′,12′-dimethyl-3,4-dihydro-2H,15′H-spiro[naphthalene-1,22′-[20]oxa[13]thia[1,14]diazatetracyclo[14.7.2.0^3,6.0^19,24]pentacosa [8,16,18,24]tetraen]-15′-one 13′,13′-dioxide], the IC50 in assay [1] (Homo sapiens, OPM-2, 16 h) came out at 759 nM; in assay [2], 1.05 nM.

The IC50 is the concentration that inhibits the measured activity by half.
